From PubChem BioAssay AID651549 (Sanford-Burnham Center for Chemical Genomics, 2012) come the findings set out here.

Activity calls are given as the source filed them.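 How the source made its calls: active means compounds blocking the PEG3 reporter with IC50 up to 10 µM at either incubation, yet sparing the GAPDH control reporter; inactive means the rest.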

A short description of this test: GAPDH and PEG-3 promoter luciferase suppression – cell-based, luminescence, set 2, counter-screen for PEG-3 promoter inhibitor project, dose response (AID 651549). The settings on record: HeLa PEG-Prom-luciferase or GAPDH-reporter, 6/24 h.

With `Nc1ncn([C@@H]2O[C@H](CO)[C@@H](O)[C@H]2O)c(=O)n1`, the concentration for half-maximal inhibition (IC50) is 2.73 µM (GAPDH, run 1, 6 h) and 0.557 µM (GAPDH, run 1, 24 h). The IC50 entry is “inactive” (PEG-3, run 1, 6 h) and “inactive” (PEG-3, run 1, 24 h).
For the compound `C=CCn1c(C)cc(C(=O)COc2ccc(C)nc2[N+](=O)[O-])c1C`, the concentration for half-maximal inhibition (IC50) (GAPDH, run 1, 6 h) is 8.44 µM; the IC50 (PEG-3, run 1, 6 h) is 9.65 µM; the 50% inhibitory concentration (IC50) (PEG-3, run 1, 24 h) is 3.38 µM. Further, the IC50 result (GAPDH, run 1, 24 h) was “inactive”.
The like results for `O=C(NCC1CCCO1)C(c1ccc(F)cc1)N(C(=O)Cn1nnc(-c2ccc(F)cc2)n1)c1cccc(O)c1` (stereo not given) were, in that order, “inactive”, > 99 µM (inactive), “inactive” and “inactive”.
The like results for `O=C(O)CSCC(=O)Nc1ccc(C2CCCCC2)cc1` were, in that order, 5.37 µM, 5.56 µM, 4.57 µM and 0.307 µM.
On the same counts, the results for `C[C@]12CC[C@H]3C(CCC4(O)CC(O)CC[C@]34C=O)C1=CC[C@H]2c1ccc(=O)oc1` (stereo not given in full) are 3.59 µM, 1.52 µM, 7.64 µM and “inactive”.
Regarding `O=C(Nc1ccccc1C(=O)Nc1nnc(C(F)(F)F)s1)c1ccccc1`, the IC50 reads like this: (GAPDH, run 1, 6 h) 1.41 µM; (GAPDH, run 1, 24 h) 7.02 µM; (PEG-3, run 1, 6 h) > 99 µM (inactive). In addition, the IC50 entry (PEG-3, run 1, 24 h) is “inactive”.
The like results for `Cc1ccc(C)c(S(=O)(=O)N2CCN(c3ncnc4sccc34)CC2)c1` were, in that order, “inactive”, 2.54 µM, “inactive” and 2.18 µM.
The like results for `COc1cc2nc(CN3CC=C(c4ccccc4)CC3)[nH]c(=O)c2cc1OC` were, in that order, “inactive”, “inactive”, “inactive” and “inactive”.
On the same counts, the results for `Cc1cc(C)c(C)c(S(=O)(=O)N2CCN(C(=O)c3cc(=O)[nH]c4ccccc34)CC2)c1C` are “inactive”, 4.79 µM, > 99 µM (inactive) and “inactive”.
`O=C(O)c1ccc(Nc2nc3c(s2)CCCC3)cc1`: the IC50 is 8.49 µM (GAPDH, run 1, 6 h) and 9.1 µM (GAPDH, run 1, 24 h). For the same compound, the IC50 result (PEG-3, run 1, 6 h) was “inactive” and the IC50 entry (PEG-3, run 1, 24 h) is “inactive”.
On to `CC(=O)OC1CC[C@]2(C#N)[C@H]3CC[C@]4(C)[C@H](C5C=CC(=O)O5)CCC4(O)C3CCC2(O)C1` (stereo not given in full), for which the IC50 is 6.51 µM (GAPDH, run 1, 6 h) and 1.6 µM (PEG-3, run 1, 6 h). The IC50 entry is “inactive” (GAPDH, run 1, 24 h) and “inactive” (PEG-3, run 1, 24 h).
`CCC1(O)C(=O)OCc2c1cc1n(c2=O)Cc2cc3cc(O)ccc3nc2-1` (stereo not given): the IC50 (GAPDH, run 1, 6 h) was 3.1 µM; the IC50 (GAPDH, run 1, 24 h) was 4.36 µM; the IC50 (PEG-3, run 1, 6 h) was 3.1 µM; the IC50 (PEG-3, run 1, 24 h) was 9.31 µM.
With `Cc1cc(C)cc(NS(=O)(=O)c2ccc3[nH]cc(C(=O)NCc4ccco4)c(=O)c3c2)c1`, for the setting “GAPDH, run 1, 6 h”, the IC50 result was “inactive”. Also, the half-inhibitory concentration (IC50) is 2.43 µM (GAPDH, run 1, 24 h); > 99 µM (inactive) (PEG-3, run 1, 6 h); 5.44 µM (PEG-3, run 1, 24 h).
On the same counts, the results for `CCC(c1nnnn1-c1ccc2c(c1)OCCO2)N1CCC(n2c(=O)[nH]c3ccccc32)CC1` (stereo not given) are “inactive”, 4.01 µM, “inactive” and “inactive”.
On the same counts, the results for `CC(CCc1ccccc1)NC(=O)COC(=O)c1ccc(S(C)(=O)=O)c([N+](=O)[O-])c1` (stereo not given) are “inactive”, “inactive”, “inactive” and 9.86 µM.
The like results for `O=C(O)c1ccc2nc(-c3ccccc3)sc2c1` were, in that order, 6.04 µM, 0.72 µM, 7.05 µM and 7.03 µM.
For the compound `NC(=O)c1cc([N+](=O)[O-])ccc1NCc1ccc(N)cc1`, the IC50 result (GAPDH, run 1, 6 h) was “inactive”; the IC50 entry (GAPDH, run 1, 24 h) was “inactive”; the IC50 entry (PEG-3, run 1, 6 h) is “inactive”. Also, the concentration for half-maximal inhibition (IC50) (PEG-3, run 1, 24 h) was 7.33 µM.
As for `COc1ccc(C(=O)Nc2ccc(C)cn2)c(OC)c1`, the IC50 was 1.07 µM (GAPDH, run 1, 6 h); 3.41 µM (GAPDH, run 1, 24 h); 3.63 µM (PEG-3, run 1, 6 h); 4.17 µM (PEG-3, run 1, 24 h).
On the same counts, the results for `CC(=O)c1cccc(-c2ccnc3c2CC(C(=O)Nc2cccc(NS(C)(=O)=O)c2)O3)c1` (stereo not given) are “inactive”, 8.62 µM, > 99 µM (inactive) and “inactive”.
On the same counts, the results for `CC(=O)OC1CC2(O)C3CCC4CC(O)CCC4(C)C3CCC2(C)C1C1=CC(=O)OC1` (stereo not given) are 0.416 µM, 0.458 µM, > 99 µM (inactive) and 0.499 µM.
As to `CS(=O)(=O)Nc1cccc(NC(=O)C2Cc3c(-c4ccccc4)ccnc3O2)c1` (stereo not given), the IC50 (GAPDH, run 1, 6 h) is > 99 µM (inactive); the IC50 (GAPDH, run 1, 24 h) was 4.26 µM; the IC50 (PEG-3, run 1, 6 h) was > 99 µM (inactive); the IC50 (PEG-3, run 1, 24 h) was 5.57 µM.
Consider `Cc1cccc(NC(=O)c2nc(S(=O)(=O)Cc3ccccc3)ncc2Cl)c1`, for which the IC50 runs as follows: (GAPDH, run 1, 6 h) 8.24 µM; (GAPDH, run 1, 24 h) 7.13 µM. Besides, the IC50 entry was “inactive” (PEG-3, run 1, 6 h) and “inactive” (PEG-3, run 1, 24 h).
`CN1OC[C@@H]2CN(S(=O)(=O)c3cccc(C(F)(F)F)c3)[C@H](c3ccc(-c4cc5ccccc5o4)cc3)C[C@@H]21`: the IC50 result is “inactive” (GAPDH, run 1, 6 h); “inactive” (PEG-3, run 1, 6 h); “inactive” (PEG-3, run 1, 24 h). The IC50 (GAPDH, run 1, 24 h) is 6.66 µM.
On to `COC(=O)c1ccc2nc(Nc3nc4ccc(F)cc4s3)sc2c1`, for which the IC50 is less than 1 µM (GAPDH, run 1, 6 h); 0.533 µM (GAPDH, run 1, 24 h); less than 1 µM (PEG-3, run 1, 6 h); 2.74 µM (PEG-3, run 1, 24 h).
In the case of `COCCn1c(C)cc(C(=O)COc2ccc(C)nc2[N+](=O)[O-])c1C`, the IC50 result (GAPDH, run 1, 6 h) was “inactive”; the IC50 entry (GAPDH, run 1, 24 h) was “inactive”; the IC50 result (PEG-3, run 1, 6 h) is “inactive”; the IC50 result (PEG-3, run 1, 24 h) is “inactive”.
